# In patent publication US7122526B2, “Indolocarbazole anticancer agents and methods of using same” (Nanosphere, Inc., priority 2000, dated 2006):
# What was measured:
# [1] = target: T1, Human Topoisomerase I (Homo sapiens, UniProt P11387); assay: Topoisomerase I assay (pHOT1 supercoiled DNA, agarose gel); type: biochemical; conditions: supercoiled DNA band density, 37° C., 30 minutes; read-out: Poisoning of Human Topoisomerase I IC50
# T1 sequence (P11387 1-765): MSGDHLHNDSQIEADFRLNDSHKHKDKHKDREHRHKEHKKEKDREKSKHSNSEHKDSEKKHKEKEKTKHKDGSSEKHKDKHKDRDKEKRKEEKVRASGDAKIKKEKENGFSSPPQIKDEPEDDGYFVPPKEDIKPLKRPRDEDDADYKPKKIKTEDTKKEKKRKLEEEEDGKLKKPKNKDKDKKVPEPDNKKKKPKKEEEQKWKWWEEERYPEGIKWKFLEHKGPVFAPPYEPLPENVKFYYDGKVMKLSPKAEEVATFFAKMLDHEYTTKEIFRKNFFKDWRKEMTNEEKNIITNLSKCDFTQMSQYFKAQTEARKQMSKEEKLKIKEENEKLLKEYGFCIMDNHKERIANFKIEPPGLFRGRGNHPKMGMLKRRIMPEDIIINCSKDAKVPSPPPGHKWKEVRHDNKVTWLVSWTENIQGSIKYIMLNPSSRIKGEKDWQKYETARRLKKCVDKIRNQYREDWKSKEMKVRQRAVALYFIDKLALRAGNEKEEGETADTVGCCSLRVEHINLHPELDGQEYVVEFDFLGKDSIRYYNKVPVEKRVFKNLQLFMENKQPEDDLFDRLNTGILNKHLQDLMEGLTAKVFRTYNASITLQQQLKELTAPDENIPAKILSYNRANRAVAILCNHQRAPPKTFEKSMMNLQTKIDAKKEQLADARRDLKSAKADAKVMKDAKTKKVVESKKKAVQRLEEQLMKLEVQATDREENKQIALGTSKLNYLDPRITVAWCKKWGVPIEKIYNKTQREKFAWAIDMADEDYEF
# Description: a.) Topoisomerase I assay. Reaction buffer (10.3 μL H2O, 2.0 μL 10×buffer, 1.5 μL […] MgCl2, and 3.2 μL 500 mM KCl) was prepared and kept on ice. 10×Buffer was prepared by mixing 2 mL 2M Tris pH 7.5, 15.3 μL 10% DTT, 100 μL 0.5 M EDTA, 75 μL 20 mg/mL BSA, and […]. Test poisons were prepared in DMSO at such concentrations that the final incubation mixture was 5% DMSO. DNA mix was prepared by dissolving […] of pHOT1 DNA solution (0.25 μg/μL) with 715 μL reaction buffer. Topo I mix was prepared by mixing 14 μL of Topo I solution (2 units/μL) with 266 μL of reaction buffer. Proteinase K solution was prepared fresh as 10 mg/mL in 1% SDS. Gel loading buffer was prepared by dissolving 1 mg bromophenol blue in 100 μL H2O, then adding 900 μL 50% glycerol.
# The assay was conducted as follows. DNA mix (14 μL) was added to sample tubes containing 1 μL of test poison solution and stored on ice. Next, 5 μL of Topo I mix was added, the solution was mixed with the pipettor, then incubated with gentle rocking in a 37° C. water bath for 30 minutes. The reactions were stopped via addition of 2 μL of proteinase K solution, and incubation was continued for another 30 minutes, then placed on ice. 2.2 μL of 5 M NaCl and 75 μL of EtOH were added to the tubes, the tubes were vortexed briefly, then placed on dry ice for 1 hour. The DNA was pelleted by centrifugation at 16,000×g for 10 minutes at 4° C. EtOH was removed from each tube using a gel loading pipette tip, and the DNA pellet was resuspended in 18 μL of reaction buffer and 2 μL of gel loading buffer. The samples were vortexed briefly, then spun for 15 seconds in a micro-centrifuge to force all the liquid to the bottom of the tubes. The samples were loaded onto a 1% agarose gel made with 1×TBE containing 2 μg/mL chloroquine. The gels were run at 35 V for 15 hours in 1×TBE. Gels were stained with 0.5 μg/mL ethidium bromide in 1×TBE for 1 hour, then destained for 30 minutes in H2O. Gels were photographed with a digital camera, and the digitized images analyzed using NIH software. IC50 values were determined by comparing supercoiled DNA band density (negative controls containing 5 μL reaction buffer in place of Topo I mix) with the supercoiled DNA bands remaining in the test samples.
# [2] = system: DU-145 Prostate; assay: In vitro cytotoxicity assay (MTS), DU-145; type: cell-based; conditions: DU-145 human prostate tumor cell line, MTS assay 3–5 days; read-out: Growth-Inhibitory Activity IC50 DU-145 Prostate
# Description: (§1) b.) In vitro Cytotoxicity Assay. 96-Well tissue culture cluster plates were seeded with 100 μL of cell suspension (5×10^3 cells/mL), and incubated overnight for cell anchorage and acclimation. Cells were propagated under sterile conditions in RPMI 1640 or DMEM with 10% fetal bovine serum, 2 mM L-glutamine, and sodium bicarbonate (complete medium), and incubated at 37° C. The test compounds were prepared in DMSO and then diluted in complete media. A range of eight concentrations was used for each test drug to establish cytotoxicity, with eight replicates for each concentration. All dosing was conducted using a Biomek 2000 robotic liquid handler. The plates were incubated at 37° C. with 5% CO2 and 95% relative humidity. The data were analyzed for cytotoxicity using the MTS assay 3–5 days (depending upon the growth rate of the cell lines) after commencement of treatment.
# (§2) c.) MTS Assay. A solution of 40 μL of MTS/PES solution (purchased from Promega Corporation) was added to each well, and incubated for one to four hours. The absorbance of formazan in each monolayer was measured at 490 nm on a Coulter microplate reader. The data were processed in a spreadsheet program to provide a dose-response curve, allowing determination of the IC50.
# [3] = system: OVCAR-3 Ovarian; assay: In vitro cytotoxicity assay (MTS), OVCAR-3; type: cell-based; conditions: OVCAR-3 human ovarian tumor cell line, MTS assay 3–5 days; read-out: Growth-Inhibitory Activity IC50 OVCAR-3 Ovarian
# Description: as §1, §2
# [4] = system: HT-29 Colon; assay: In vitro cytotoxicity assay (MTS), HT-29; type: cell-based; conditions: HT-29 human colon tumor cell line, MTS assay 3–5 days; read-out: Growth-Inhibitory Activity IC50 HT-29 Colon
# Description: as §1, §2
Compound,IC50 [1] [nM],IC50 [2] [nM],IC50 [3] [nM],IC50 [4] [nM]
"O=C1NC(=O)c2c1c1c3cc(O)ccc3[nH]c1c1c2c2cc(O)ccc2n1[C@@H]1O[C@H](CO)[C@@H](O)[C@H](O)[C@H]1O [ALS-007, 3,9-dihydroxy-12-(β-D-glucopyranosyl)-6,7,12,13-tetrahydroindolo[2,3-a]pyrrolo[3,4-c]carbazole-5,7-dione, reference compound]",20900,338,< 10,9960
"O=C1NC(=O)c2c1c1c3cc(O)ccc3[nH]c1c1c2c2cc3c(cc2n1[C@@H]1O[C@H](CO)[C@@H](O)[C@H](O)[C@H]1O)OCCO3 [IIa, 2,3-ethylenedioxy-9-hydroxy-13-(β-D-glucopyranosyl)-6,7,12,13-tetrahydroindolo[2,3-a]pyrrolo[3,4-c]carbazole-5,7-dione]",> 400000,–,–,–
"O=C1NC(=O)c2c1c1c3cc(O)ccc3[nH]c1c1c2c2cc3c(cc2n1[C@@H]1O[C@H](CO)[C@@H](O)[C@H](O)[C@H]1O)OCO3 [IIb, 2,3-methylenedioxy-9-hydroxy-13-(β-D-glucopyranosyl)-6,7,12,13-tetrahydroindolo[2,3-a]pyrrolo[3,4-c]carbazole-5,7-dione]",> 400000,–,–,–
"O=C1NC(=O)c2c1c1c3cc4c(cc3[nH]c1c1c2c2cc(O)ccc2n1[C@@H]1O[C@H](CO)[C@@H](O)[C@H](O)[C@H]1O)OCCO4 [Ia, 2,3-ethylenedioxy-9-hydroxy-12-(β-D-glucopyranosyl)-6,7,12,13-tetrahydroindolo[2,3-a]pyrrolo[3,4-c]carbazole-5,7-dione]",5400,845,< 10,> 10000
"O=C1NC(=O)c2c1c1c3cc4c(cc3[nH]c1c1c2c2cc(O)ccc2n1[C@@H]1O[C@H](CO)[C@@H](O)[C@H](O)[C@H]1O)OCO4 [Ib, 2,3-methylenedioxy-9-hydroxy-12-(β-D-glucopyranosyl)-6,7,12,13-tetrahydroindolo[2,3-a]pyrrolo[3,4-c]carbazole-5,7-dione]",3600,460,< 10,> 10000
"CC1(C)Oc2cc3[nH]c4c(c5c(c6c7cc(O)ccc7n(C7OC(CO)C(O)C(O)C7O)c46)C(=O)NC5=O)c3cc2O1 [Ic, 2,3-isopropylenedioxy-9-hydroxy-12-(β-D-glucopyranosyl)-6,7,12,13-tetrahydroindolo[2,3-a]pyrrolo[3,4-c]carbazole-5,7-dione]",8100,2360,36,> 10000
"CC[C@@]1(O)C(=O)OCc2c1cc1n(c2=O)Cc2cc3c(CN(C)C)c(O)ccc3nc2-1 [Topotecan, reference compound]",–,30,< 3,533
"O=C1c2c(c3c4cc(O)ccc4n(C4OC(CO)C(O)C(O)C4O)c3c3[nH]c4cc5c(cc4c23)OCCO5)C(=O)N1CO [compound 9, 2,3-ethylenedioxy-6-hydroxymethyl-9-hydroxy-12-(β-D-glucopyranosyl)-6,7,12,13-tetrahydroindolo[2,3-a]pyrrolo[3,4c]carbazole-5,7-dione]",3900,718,< 10,> 10000
"O=C1c2c(c3c4cc(O)ccc4n([C@@H]4O[C@H](CO)[C@@H](O)[C@H](O)[C@H]4O)c3c3[nH]c4cc5c(cc4c23)OCO5)C(=O)N1CO [compound 16, 2,3-methylenedioxy-6-hydroxymethyl-9-hydroxy-12-(β-D-glucopyranosyl)-6,7,12,13-tetrahydroindolo[2,3-a]pyrrolo[3,4-c]carbazole-5,7-dione]",3600,549,< 10,> 10000
"CC1(C)Oc2cc3[nH]c4c(c5c(c6c7cc(O)ccc7n(C7OC(CO)C(O)C(O)C7O)c46)C(=O)N(CO)C5=O)c3cc2O1 [compound 23, 2,3-isopropylenedioxy-6-hydroxymethyl-9-hydroxy-12-(β-D-glucopyranosyl)-6,7,12,13-tetrahydroindolo[2,3-a]pyrrolo[3,4-c]carbazole-5,7-dione]",130000,3520,43,> 10000
